Patent US7091038B2, “Ecdysone receptor-based inducible gene expression system” (RheoGene, Inc., priority 2000, dated 2006)

How the values were obtained:
GAL4USP + VP16CfEcR = assay: Transactivation of reporter gene through switch 1.5 in CHO cells; format: cell-based, Choristoneura fumiferana; conditions: switch 1.5, pGAL4RELuc
Method: This construct was prepared in the same way as switch 1.3 except MmRXRDEF was replaced with CfUSPDEF (SEQ ID NO: 67).
(§1) The cells were harvested and reporter activity was assayed.
(§2) Cells were harvested 24–48 hr after adding ligands. […] Twenty μl of lysate was assayed.

VP16CfEcR [1] = assay: Transactivation of reporter gene through switch 1.7 in CHO cells; format: cell-based, Choristoneura fumiferana; conditions: switch 1.7, pEcRELuc
Method: (§3) Six ecdysone response elements (“EcRE”; SEQ ID NO: 55) from the hsp27 gene were placed upstream of the promoter and a luciferase gene (SEQ ID NO: 66). This switch most probably uses endogenous RXR.
as §1, §2

GAL4RXR + VP16DmEcR [2] = biological target: T1, GAL4RXR + VP16DmEcR (Drosophila melanogaster, UniProt P34021); assay: Transactivation of reporter gene through switch 1.4 in 293 cells; format: cell-based, Mus musculus; Drosophila melanogaster; conditions: switch 1.4, pGAL4RELuc
T1 sequence (P34021 254-878): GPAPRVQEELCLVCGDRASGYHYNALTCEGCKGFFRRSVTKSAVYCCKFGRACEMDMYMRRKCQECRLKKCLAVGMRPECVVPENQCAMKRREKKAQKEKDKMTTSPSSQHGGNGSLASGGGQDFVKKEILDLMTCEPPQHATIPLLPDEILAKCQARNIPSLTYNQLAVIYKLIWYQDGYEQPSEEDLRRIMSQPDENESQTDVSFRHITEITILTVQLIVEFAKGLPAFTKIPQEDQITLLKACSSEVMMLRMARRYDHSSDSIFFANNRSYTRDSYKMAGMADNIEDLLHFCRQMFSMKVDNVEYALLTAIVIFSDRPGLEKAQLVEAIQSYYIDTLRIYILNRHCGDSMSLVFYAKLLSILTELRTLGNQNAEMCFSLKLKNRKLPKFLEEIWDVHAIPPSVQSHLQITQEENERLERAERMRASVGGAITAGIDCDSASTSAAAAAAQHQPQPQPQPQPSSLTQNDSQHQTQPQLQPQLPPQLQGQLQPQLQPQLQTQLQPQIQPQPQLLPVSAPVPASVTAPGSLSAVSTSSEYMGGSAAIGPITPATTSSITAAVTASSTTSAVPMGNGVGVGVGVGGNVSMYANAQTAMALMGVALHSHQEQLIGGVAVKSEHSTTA
T1 sequence (P28700 206-467 partner limits assumed): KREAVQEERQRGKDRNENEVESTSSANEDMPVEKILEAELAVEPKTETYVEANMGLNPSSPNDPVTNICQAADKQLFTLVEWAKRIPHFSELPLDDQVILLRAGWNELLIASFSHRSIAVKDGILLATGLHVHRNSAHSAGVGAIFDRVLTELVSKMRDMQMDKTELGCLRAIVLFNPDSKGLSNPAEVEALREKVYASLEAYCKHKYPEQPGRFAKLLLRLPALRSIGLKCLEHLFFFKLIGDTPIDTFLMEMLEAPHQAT
Method: (§4) This construct was prepared in the same way as switch 1.3 except CfEcRCDEF was replaced with DmEcRCDEF (SEQ ID NO: 6).
as §1
(§5) The same procedures described for CHO were followed for 293 cells except that the cells were plated in biocoated plates to avoid clumping.
as §2

VP16CfEcR [3] = assay: Transactivation of reporter gene through switch 1.7 in 293 cells; format: cell-based, Choristoneura fumiferana; conditions: switch 1.7, pEcRELuc
Method: as §3, §1, §5, §2

GAL4RXR + VP16CfEcR = assay: Transactivation of reporter gene through switch 1.3 in CV1 cells; format: cell-based, Mus musculus; Choristoneura fumiferana; conditions: switch 1.3, pGAL4RELuc
Method: as §1
(§6) The cells were plated when they reached 50% confluency.
(§7) The same procedures described for NIH3T3 cells were followed for CV1 cells
as §2

CfVgRXR + MmRXR = assay: Transactivation of reporter gene through switch 1.9 in CV1 cells; format: cell-based, Choristoneura fumiferana; Mus musculus; conditions: switch 1.9, pIND(SP1)LacZ
Method: This example was prepared in the same way as switch 1.8 except DmEcR was replaced with a truncated CfEcR comprising a partial A/B domain and the complete CDEF domains [SEQ ID NO: 70 (polynucleotide) and SEQ ID NO: 71 (polypeptide)].
as §1, §6, §7, §2

CfVgRXR = assay: Transactivation of reporter gene through switch 1.10 in CV1 cells; format: cell-based, Choristoneura fumiferana; conditions: switch 1.10, pIND(SP1)LacZ
Method: This example was prepared in the same way as switch 1.9 except MmRXR (SEQ ID NO: 62) was deleted.
as §1, §6, §7, §2

GAL4RXR + VP16DmEcR [4] = biological target: T1, GAL4RXR + VP16DmEcR; assay: Transactivation of reporter gene through switch 1.4 in CV1 cells; format: cell-based, Mus musculus; Drosophila melanogaster; design: expressed in transfected cells; host or cells: CV1 cells; conditions: switch 1.4, pGAL4RELuc
Method: as §4, §1, §6, §7, §2

With CCc1c(OC)cccc1C(=O)NN(C(=O)c1cc(C)cc(C)c1)C(C)(C)C [N-(2-ethyl-3-methoxybenzoyl)-N′-(3,5-dimethylbenzoyl)-N′-t-butylhydrazine] the “Mean Fold Activation with 50 μM N-(2-ethyl-3-methoxybenzoyl)-N′-(3,5-dimethylbenzoyl)-N′-t-butylhydrazine” value (GAL4USP + VP16CfEcR) was 2 fold, the “Mean Fold Activation with 50 μM N-(2-ethyl-3-methoxybenzoyl)-N′-(3,5-dimethylbenzoyl)-N′-t-butylhydrazine” value (VP16CfEcR [1]) was 36 fold and the “Mean Fold Activation Through N-(2-ethyl-3-methoxybenzoyl)-N′-(3,5-dimethylbenzoyl)-N′-t-butylhydrazine” value (GAL4RXR + VP16DmEcR [2]) was 3 fold. The “Mean Fold Activation Through N-(2-ethyl-3-methoxybenzoyl)-N′-(3,5-dimethylbenzoyl)-N′-t-butylhydrazine” value (VP16CfEcR [3]) was 2 fold, the “Mean Fold Activation Through N-(2-ethyl-3-methoxybenzoyl)-N′-(3,5-dimethylbenzoyl)-N′-t-butylhydrazine” value (GAL4RXR + VP16CfEcR) was 25 fold and the “Mean Fold Activation Through N-(2-ethyl-3-methoxybenzoyl)-N′-(3,5-dimethylbenzoyl)-N′-t-butylhydrazine” value (CfVgRXR + MmRXR) was 7 fold. For the same compound, the “Mean Fold Activation Through N-(2-ethyl-3-methoxybenzoyl)-N′-(3,5-dimethylbenzoyl)-N′-t-butylhydrazine” value (CfVgRXR) was 1 fold and the “Mean Fold Activation Through N-(2-ethyl-3-methoxybenzoyl)-N′-(3,5-dimethylbenzoyl)-N′-t-butylhydrazine” value (GAL4RXR + VP16DmEcR [4]) was 80 fold.
